Source: US20060046972A1, “Cytotoxic nucleoside analog compound 003 for treating cancer” (Parker Hughes Institute, priority 2004, published 2006)

Experiments:
[1] = Stability in simulated gastric fluid; format: in vitro ADME
Method: (§1) Plasma samples, simulated gastric fluid and intestinal fluids (United State Pharmacopeia XXII methods) were separately spiked with COMPOUND 003 to yield final concentrations of 500 μM. Spiked samples were incubated at 37° C. At a predetermined time (5, 10, 15, 30 60 and 120 minutes), an aliquot (200 μl) of the spiked plasma sample was extracted as described above.

[2] = tested on: PC-3 prostate cancer cells; experiment: Confocal laser scanning microscopy of mitotic spindle, PC-3; format: cell-based, human; settings: 100 μM
Method: (§2) Immunofluorenscence was used to examine the spindle features of human cancer cell lines treated with Compound 003 or 0.5% DMSO. Initially, cells at log phase were seeded onto sterile 22 mm coverslips in six -well culture plates. 24 hours later, the cells were treated with compound 003 for 2 hours at 37° C., 5% C02, fixed in methanol (−20° C. 15 min) followed by a 15 minute incubation with PBS +0.1.% Tx-100. The coverslips were incubated with antibodies raised against α-tubulin, γ-tubulin (Sigma Chemical Co., St Louis, Mo.) (40 min 37° C.), washed in PBS-Tx-100, and incubated with an appropriate secondary antibody conjugated to FITC (Jackson ImmunoResearch, Westgrove, Pa.). Cellular DNA was labeled with 5 μM TOTO3 (Molecular Probes, Eugene, Oreg.) for 20 minutes. Coverslips were immediately inverted onto slides in Vectashield (Vector Labs, Burlingame, Calif.) to prevent photobleaching, sealed with nail varnish and stored at −20° C. The slides were examined using a Bio-Rad MRC-1024 Laser Scanning Confocal Microscope equipped with a Kr/Ar laser (BioRad, Hercules, Calif.) mounted on a Nikon Eclipse E800 upright microscope with high numerical aperture objectives (Nikon, Melville, N.Y.). Digital data were processed using Lasersharp (BioRad) and Adobe Photoshop software (Adobe Systems, Mountain View, Calif.). […]

[3] = Stability in plasma; format: in vitro ADME
Method: as §1

[4] = tested on: U373 glioblastoma cells; experiment: Confocal laser scanning microscopy of mitotic spindle, U373; format: cell-based, human; settings: 100 μM
Method: as §2

[5] = tested on: centrosomes isolated from an EBV-transformed B-lymphoblastoid cell line; experiment: Centrosomal regrowth assay of aster formation from isolated centrosomes; format: biochemical; settings: 100 μM
Method: Centrosome isolation from an EBV-transformed B-lymphoblastoid cell line was performed following a slight modification of a literature procedure (See, for example, Moudjou and Bomens, 1994, Cell Biology: A Laboratory Handbook, p. 595. Academic Press, Inc, New York; and Cell Biology: A Laboratory Handbook, 1994).
Briefly, cells were grown to a density of 1×10^6 per ml. A total of 1×10^9 cells were treated for 1 hour with […] and […]. All subsequent procedures were performed at 4° C. Firstly, cells were transferred into sterile conical 50 ml tubes and sedimented at 1,200×g for 5 minutes. Cells were then washed twice with 50 ml of filtered tris buffered saline (10 mM Tris-HCl, pH 7.4, 150 mM NaCl, TBS) by gentle resuspension with a pasteur pipette and sedimented at 1,200×g for 5 minutes. Cells were next washed with 8% sucrose in ten times diluted TBS and sedimented at 1,200×g for 5 minutes. Cells were lysed with 100 ml of 1 mM Hepes lysis buffer (0.5% Nonidet-P40), 0.5mM MgCl2, 0.1% β-Mercaptoethanol, 1 mM PMSF, 100 μg/ml aprotinin, 1 μg/ml leupeptin and 1 μg/ml pepstatin), pH 7.2. The swollen nuclei were sedimented at 1,200×g for 10 minutes and the supernatant was filtered through a 70 μm nylon cell strainer. After the addition of 1M Hepes (10 mM final) and 5 μl of 10 mg/ml DNase (1 μg/ml final), the lysate was incubated for 30 minutes at 4° C. […]

For `COC(=O)C(C)NP(=O)(OCC1OC(n2cc(C)c(=O)[nH]c2=O)CC1N=[N+]=[N-])Oc1ccc(OC)cc1` (centres unmarked) [Compound 003, 3′-azidothymidine 5′-[p-methoxyphenylmethoxyalaninyl phosphate]], the decomposition product ([1]; gastric fluid) was “quickly decomposed to yield a intermediate product”, the stability ([1]; simulated gastric fluid, 500 μM, 37° C.) was “unstable” and the mitotic spindle formation [2] was “induced aberrant multipolar spindle formation”. For the same compound, the decomposition product [3] was “decomposed to mainly form ala-AZT-MP”, the stability ([3]; 500 μM, 37° C.) was “unstable in plasma” and the “share of Compound 003 decomposed” value ([3]; 500 μM, 37° C., within 5 minutes) was greater than 99%. For the same compound, the mitotic spindle formation [4] was “induced aberrant multipolar spindle formation” and the “nucleation of microtubules and aster growth from isolated centrosomes” value [5] was “inhibited the ability of the centrosomes to nucleate and sufficiently grow microtubule asters”.
